# Experimental data taken from patent US4847241A, “Fluorenyl substituted tyrosyl dipeptide amides which are useful in treating pain” (priority 1988, dated 1989).
# pIC50: −log10 of the molar value.
# How the values were obtained:
# Writhing Mouse = assay: Writhing Assay (phenylbenzoquinone); assay type: in vivo, mice; conditions: 30 min before phenylbenzoquinone i.p., Active refers to the effect of the screening dose; for Writhing Mouse, Oral: screening dose 10 mg/kg p.o. (intragastric); for Writhing Mouse, Subc.: screening dose 10 mg/kg s.c.
# Method: Male Charles River albino mice (CD-1/HAM/1LR) weighing between 20 and 30 grams were used. Thirty minutes after subcutaneous or intragastric administration of the test compound (0.1 mg/10 gram body weight), 0.025% (w/v) phenylbenzoquinone was injected intraperitoneally (0.1 ml/10 gram body weight). Five minutes later, each mouse was placed in a large glass beaker and the number of writhes that occurred in the subsequent ten minutes is counted. A writhe consisted of dorsoflexion of the back, extension of the hindlimbs, and strong contraction of the abdominal musculature. The test compound was considered to have produced analgesia in a mouse if the number of writhes elicited by phenylbenzoquinone was equal to or less than one-half the median number of writhes recorded for the saline-treated group that day. The results were expressed as the number of mice (out of a possible ten) in which the test compound produced analgesia.
# [1] = system: opiate receptors isolated from rat brain; assay type: binding; conditions: 1 nM 3H-Naloxone, rat brain receptor membranes, screening concentration 10^-5 molar
# rat = conditions: injected directly into the brain of the rat; cited from earlier work
Compound,"Writhing Mouse, Oral (Writhing Mouse)","Writhing Mouse, Subc. (Writhing Mouse)","Opiate Binding, IC50 [1]","pIC50 ([1]; read-out: Opiate Binding, IC50)",analgesic activity (rat)
"2,6-dimethyltyrosyl-N-(2,3-dihydro-1H-inden-2-yl)-D-alaninamide, monohydrochloride [Example 24]",Inactive,Lethal,,,
"2,6-dimethyltyrosyl-N-(6-methoxy-6-oxohexyl)-D-alaninamide, monohydrochloride [Example 5]",Inactive,Inactive,,,
"2,6-dimethyltyrosyl-N-(6-methoxy-6-oxohexyl)-D-alaninamide, monohydrochloride [Example 7]",Inactive,Inactive,,,
"2,6-dimethyltyrosyl-N-[3-(2-thienyl)-2E-propenyl]-D-alaninamide, monohydrochloride [Example 52]",Inactive,Active,,,
"2,6-dimethyltyrosyl-N-[3-(2-thienyl)propyl]-D-alaninamide, monohydrochloride [Example 47]",Active,Active,,,
"2,6-dimethyltyrosyl-N-[3-(3-thienyl)-2E-propenyl]-D-alaninamide, monohydrochloride [Example 58]",Inactive,Active,,,
"2-(2R-amino-1-oxopropyl)-1,2,3,4-tetrahydroisoquinoline, monohydrochloride [Example 32]",Active,Inactive,Inactive,,
"Cc1cc(O)cc(C)c1CC(NC(=O)OC(C)(C)C)C(=O)N[C@H](C)C(=O)NCCSc1ccccc1 (mixture of isomers) [Example 108, N-[(1,1-dimethylethoxy)carbonyl]-2,6-dimethyl-DL-tyrosyl-N-[2-(phenylthio)ethyl]-D-alaninamide]",Inactive,Active,,,
"Cc1cc(O)cc(C)c1CC(NC(=O)OC(C)(C)C)C(=O)N[C@H](C)C(=O)NCCOc1ccccc1 (mixture of isomers) [Example 115, N-[(1,1-dimethylethoxy)carbonyl]02,6-dimethyl-DL-tyrosyl-N-(2-phenoxyethyl)-D-alaninamide]",Active,Active,,,
"Cc1cc(O)cc(C)c1C[C@H](N)C(=O)N[C@@H](C)C(=O)N1CCCc2ccccc21.Cl (relative stereo) [Example 29, αS-R*-amino-4-hydroxy-2,6-dimethyl-N-[1S*-methyl-2-oxo-2-(1,2,3,4-tetrahydro-1-quinolinyl)ethyl]benzenepropanamide, monohydrochloride]",Inactive,Inactive,,,
"Cc1cc(O)cc(C)c1C[C@H](N)C(=O)N[C@H](C)C(=O)N1CCc2ccccc2C1.Cl (single isomer, unassigned) [Example 35, α-amino-4-hydroxy-2,6-dimethyl-N-[1R-methyl-2-oxo-2-(1,2,3,4-tetrahydro-2-isoquinolinyl)ethyl]benzenepropanamide, monohydrochloride, isomer S]",Active,Active,,,
"Cc1cc(O)cc(C)c1C[C@H](N)C(=O)N[C@H](C)C(=O)NCCCc1cccs1.Cl (single isomer, unassigned) [Example 46, 2,6-dimethyltyrosyl-N-[3-(2-thienyl)propyl]-D-alaninamide, monohydrochloride DF isomer]",Inactive,Inactive,,6.66,
"C[C@@H](NC(=O)OCc1ccccc1)C(=O)NC1Cc2ccccc2C1 [Example 20, phenylmethyl [2-[(2,3-dihydro-1H-inden-2-yl)amino]-1R-methyl-2-oxoethyl]carbamate]",Inactive,Active,Inactive,,
"C[C@@H](N)C(=O)NC1Cc2ccccc2C1 [Example 21, 2R-amino-N-(2,3-dihydro-1H-inden-2-yl)propanamide]",Inactive,Active,Inactive,,
"C[C@@H](NC(=O)OCc1ccccc1)C(=O)N1CCCc2ccccc21 [Example 25, phenylmethyl [1R-methyl-2-oxo-2-(1,2,3,4-tetrahydro-1-quinolinyl)ethyl]carbamate]",Inactive,Inactive,,,
"Cc1cc(O)cc(C)c1CC(N)C(=O)N[C@H](C)C(=O)N1CCCc2ccccc21.Cl (stereo partly drawn) [Example 30, α-amino-4-hydroxy-2,6-dimethyl-N-[1R-methyl-2-oxo-2-(1,2,3,4-tetrahydro-1-quinolinyl)ethyl]benezenepropanamide, monohydrochloride]",Inactive,Inactive,,,
"Cc1cc(O)cc(C)c1C[C@H](N)C(=O)N[C@H](C)C(=O)NCCc1cccs1.Cl [Example 39, 2,6-dimethyl-L-tyrosyl-N-[2-(2-thienyl)ethyl]-D-alainamide, monohydrochloride]",Inactive,Inactive,,,
"C[C@@H](N)C(=O)NCCCc1cccs1 [Example 44, 2R-amino-N-[3-(2-thienyl)propyl]propanamide]",Active,Active,Inactive,,
"COc1ccc(CCCNC(=O)[C@@H](C)N)cc1 [Example 60, αR-amino-N-[3-(4-methoxyphenyl)propyl]propanamide]",Active,Active,,,
"Cc1cc(O)cc(C)c1C[C@H](N)C(=O)N[C@H](C)C(=O)NCCC(c1ccccc1)c1ccccc1.Cl [Example 73, 2,6-dimethyltyrosyl-N-(3,3-diphenylpropyl)-D-alaninamide, monohydrochloride]",Inactive,Active,,,
"Cc1cc(O)cc(C)c1C[C@H](N)C(=O)N[C@H](C)C(=O)NCCSc1ccccc1.Cl [Example 109, 2,6-dimethyltyrosyl-N-[2-(phenylthio)ethyl]-D-alaninamide, monohydrochloride]",Inactive,Active,,,
methionine enkepthalin,,,,,"weak, fleeting analgesic activity"
"α-amino-4-hydroxy-2,6-dimethyl-N-[1R-methyl-2-oxo-2-(1,2,3,4-tetrahydro-2-isoquinolinyl)ethyl]benzenepropanamide, monohydrochloride [Example 37]",Inactive,Inactive,,,
